Measurements: patent publication US12092575B2, “Measuring method of cell migration using the rate of cell invasion” (MBD Co., Ltd., priority 2021, dated 2024)

Tests used:
#1 HNSCC PDC = experiment: Pillar-based spheroid invasion assay of #1 HNSCC PDC; type: cell-based, human; conditions: #1 HNSCC PDC spheroids, 80 μM of drugs, three days
A549 cells = experiment: Transwell invasion assay (Matrigel-coated membrane); type: cell-based; conditions: 1 μM docetaxel, 24 h, Matrigel-coated membrane (FIG. 6)
Protocol: In the present invention, transwell for conventional invasion assay was used. The membrane of the transwell was coated with 100 μl Matrigel (Corning, NY, USA) basement membrane matrix diluted 9-fold. A549 cells (2×10^4 cells/well) were seeded in the insert of the transwell with RPMI media without FBS. 500 μl RPMI media with FBS was filled in the wells to serve as a chemoattractant. After 24 h of cell incubation, migrated cells on the insert were fixed with 95% ethyl alcohol and then stained with 0.5% crystal violet.
Based on the fluorescence intensity, spheroid was identified, and invasive cells were calculated by subtracting the spheroid area from the total cell area. A549 cells formed a spheroid two days after cell aggregation and incubation. Cells surrounding spheroid migrated for an additional three days of culture. To check the invasiveness of A549 cells, the present inventors conducted invasion assay using Transwell (24-well transwell, Cat. No. 3422, Corning, USA) in no drug and 1 μM Docetaxel.

A549 cell line = experiment: Pillar-based spheroid invasion assay of A549 cell line
Protocol: Before using the pillar array, the pillar array and cell-encapsulation apparatus were immersed in 70% ethanol for 30 min for sterilization followed by complete drying at room temperature.

SMILES	cell migration/invasion (spheroid morphology) (#1 HNSCC PDC)	invasion of A549 in the Transwell (A549 cells)	cell invasion (A549 cell line; A549 spheroids on pillar)	size of a single big spheroid (spheroid area) (A549 cell line; A549 spheroids on pillar (FIG. 8))	total cell area, which means cell viability (A549 cell line; A549 spheroids on pillar, as a function of docetaxel concentration (FIG. 7))	invasion ratio (A549 cell line; A549 spheroids on pillar, docetaxel treated, control 52% (FIG. 9))
N.N.[Cl][Pt][Cl] [cisplatin, Cisplatin]	effectively inhibited cell migration/invasion					
CC(=O)O[C@@]12CO[C@@H]1C[C@H](O)[C@@]1(C)C(=O)[C@H](O)C3=C(C)[C@@H](OC(=O)[C@H](O)[C@@H](NC(=O)OC(C)(C)C)c4ccccc4)C[C@@](O)([C@@H](OC(=O)c4ccccc4)[C@H]21)C3(C)C [docetaxel, Docetaxel]	effectively inhibited cell migration/invasion	inhibited the invasion	inhibited cell invasion	reduced the size of a single big spheroid	decreased depending on docetaxel concentration	lower than 35%
CN[C@@H]1C[C@H]2O[C@@](C)([C@@H]1OC)n1c3ccccc3c3c4c(c5c6ccccc6n2c5c31)C(=O)NC4 [staurosporine, Staurosporine]	effectively inhibited cell migration/invasion					
